Test [1] has as its target Protein cereblon/Signal transducer and activator of transcription 1-alpha/beta (Homo sapiens, UniProt P42224+Q96SW2). The experiment in a line: Protac activity at E3 ubiquitin ligase/STAT1 in human MOLM-16 cells assessed as degradation of STAT1 incubated for 4 hrs by fluorescent immunoblotting analysis. Format: cell-based. In general terms: A western blot detects proteins with antibodies after separation by electrophoresis.

The target of test [2] is Protein cereblon/Signal transducer and activator of transcription 3 (Homo sapiens, UniProt P40763+Q96SW2). The experiment in a line: Protac activity at E3 ubiquitin ligase/STAT3 in human MOLM-16 cells assessed as degradation of STAT3 incubated for 4 hrs by fluorescent immunoblotting analysis. Format: cell-based.

The values that follow come from ChEMBL document CHEMBL4715901, “Degradation of Signal Transducer and Activator of Transcription Proteins in Cancer Therapeutics” (ACS Med Chem Lett, 2021).

As a reminder, the DC50 is the midpoint of the concentration-degradation curve.

Chain of Protein cereblon/Signal transducer and activator of transcription 3 (P40763 whole entry): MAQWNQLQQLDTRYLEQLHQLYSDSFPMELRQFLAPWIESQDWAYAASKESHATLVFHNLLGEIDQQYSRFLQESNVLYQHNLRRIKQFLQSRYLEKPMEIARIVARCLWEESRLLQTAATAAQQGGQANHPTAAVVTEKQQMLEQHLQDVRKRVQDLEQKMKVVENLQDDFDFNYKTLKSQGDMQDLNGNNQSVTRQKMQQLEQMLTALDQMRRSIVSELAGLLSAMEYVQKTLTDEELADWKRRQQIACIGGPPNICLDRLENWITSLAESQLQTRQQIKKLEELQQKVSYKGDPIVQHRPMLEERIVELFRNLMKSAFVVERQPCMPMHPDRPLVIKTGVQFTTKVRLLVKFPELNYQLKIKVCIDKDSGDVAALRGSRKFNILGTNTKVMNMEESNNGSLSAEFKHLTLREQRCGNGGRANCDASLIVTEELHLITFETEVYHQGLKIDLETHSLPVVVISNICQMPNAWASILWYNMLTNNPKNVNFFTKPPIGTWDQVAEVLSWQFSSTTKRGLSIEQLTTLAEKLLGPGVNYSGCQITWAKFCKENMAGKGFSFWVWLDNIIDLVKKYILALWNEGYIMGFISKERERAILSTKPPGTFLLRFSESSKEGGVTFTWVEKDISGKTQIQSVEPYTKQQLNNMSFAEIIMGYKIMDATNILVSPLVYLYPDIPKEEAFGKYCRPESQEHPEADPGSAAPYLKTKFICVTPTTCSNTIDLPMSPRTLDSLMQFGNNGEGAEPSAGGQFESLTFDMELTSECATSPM
Chain of Protein cereblon/Signal transducer and activator of transcription 3 (Q96SW2 whole entry): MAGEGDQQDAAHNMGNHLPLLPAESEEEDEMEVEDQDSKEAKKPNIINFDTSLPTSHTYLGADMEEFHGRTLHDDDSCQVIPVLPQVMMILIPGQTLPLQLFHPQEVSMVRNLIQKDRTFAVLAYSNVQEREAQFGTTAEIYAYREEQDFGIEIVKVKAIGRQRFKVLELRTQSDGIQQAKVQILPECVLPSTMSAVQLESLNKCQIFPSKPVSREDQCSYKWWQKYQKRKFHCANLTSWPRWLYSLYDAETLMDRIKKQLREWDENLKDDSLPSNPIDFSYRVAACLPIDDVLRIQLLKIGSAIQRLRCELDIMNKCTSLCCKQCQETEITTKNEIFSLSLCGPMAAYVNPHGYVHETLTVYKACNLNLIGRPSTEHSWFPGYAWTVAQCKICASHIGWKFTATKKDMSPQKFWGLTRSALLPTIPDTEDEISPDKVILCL
Chain of Protein cereblon/Signal transducer and activator of transcription 1-alpha/beta (P42224 whole entry): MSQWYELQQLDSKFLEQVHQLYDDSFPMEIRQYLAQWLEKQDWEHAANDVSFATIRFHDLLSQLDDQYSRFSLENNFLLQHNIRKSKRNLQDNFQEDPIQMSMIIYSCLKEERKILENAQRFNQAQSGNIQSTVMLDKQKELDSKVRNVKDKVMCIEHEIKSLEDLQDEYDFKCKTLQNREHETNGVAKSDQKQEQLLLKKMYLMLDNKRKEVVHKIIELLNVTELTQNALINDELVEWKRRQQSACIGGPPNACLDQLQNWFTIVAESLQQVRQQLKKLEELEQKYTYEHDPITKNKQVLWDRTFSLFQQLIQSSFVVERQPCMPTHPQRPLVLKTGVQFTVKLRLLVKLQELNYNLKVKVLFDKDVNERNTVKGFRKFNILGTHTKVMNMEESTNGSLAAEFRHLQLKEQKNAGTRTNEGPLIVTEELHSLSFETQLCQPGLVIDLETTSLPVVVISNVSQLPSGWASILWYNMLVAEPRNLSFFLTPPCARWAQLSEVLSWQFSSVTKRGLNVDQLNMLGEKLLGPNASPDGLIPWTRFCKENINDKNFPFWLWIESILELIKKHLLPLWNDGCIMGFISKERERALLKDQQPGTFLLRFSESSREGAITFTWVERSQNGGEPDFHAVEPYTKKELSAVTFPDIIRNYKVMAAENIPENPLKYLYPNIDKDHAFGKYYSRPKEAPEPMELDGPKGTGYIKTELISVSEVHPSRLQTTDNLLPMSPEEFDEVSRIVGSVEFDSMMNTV
Chain of Protein cereblon/Signal transducer and activator of transcription 1-alpha/beta (Q96SW2 whole entry): as the sequence (Q96SW2 whole entry) above

Take `CC(C)(C)c1ccc(C[C@H](NC(=O)[C@H](CCC(N)=O)NC(=O)[C@@H]2CC[C@@H]3CCN(CC(F)F)C[C@H](NC(=O)c4cc5cc(C(F)(F)P(=O)(O)O)ccc5s4)C(=O)N32)C(=O)N2CCC(CCC#Cc3cccc4c3CN(C3CCC(=O)NC3=O)C4=O)CC2)cc1` (some centres not stated): the DC50 in test [1] and in test [2] was less than 0.25 µM each time.
Consider `CCN1CC[C@H]2CC[C@@H](C(=O)N[C@@H](CCC(N)=O)C(=O)N[C@@H](Cc3ccc(NS(=O)(=O)c4ccc(C)cc4)cc3)C(=O)N3CCC(CCC#Cc4cccc5c4CN(C4CCC(=O)NC4=O)C5=O)CC3)N2C(=O)[C@@H](NC(=O)c2cc3cc(C(F)(F)P(=O)(O)O)ccc3s2)C1` (some centres not stated), for which the DC50 in test [1] is 0.25 µM; in test [2] it was less than 0.25 µM.
With `CCN1CC[C@H]2CC[C@@H](C(=O)N[C@@H](CCC(N)=O)C(=O)N[C@@H](Cc3ccc(S(=O)(=O)c4ccccc4)cc3)C(=O)N3CCC(CCC#Cc4cccc5c4CN(C4CCC(=O)NC4=O)C5=O)CC3)N2C(=O)[C@@H](NC(=O)c2cc3cc(C(F)(F)P(=O)(O)O)ccc3s2)C1` (some centres not stated), the DC50 in test [1] was 0.25 µM; in test [2], less than 0.25 µM.
Take `COC(=O)N1CC[C@H]2CC[C@@H](C(=O)N[C@@H](CCC(N)=O)C(=O)N[C@@H](Cc3ccc(C(C)(C)C)cc3)C(=O)N3CCC(CCC#Cc4cccc5c4CN(C4CCC(=O)NC4=O)C5=O)CC3)N2C(=O)[C@@H](NC(=O)c2cc3cc(C(F)(F)P(=O)(O)O)ccc3s2)C1` (some centres not stated): the figures for the DC50 in test [1] and in test [2] were 0.25 µM and less than 0.25 µM, respectively.
The like results for `CCN1CC[C@H]2CC[C@@H](C(=O)N[C@@H](CCC(N)=O)C(=O)N[C@@H](Cc3ccc(S(=O)(=O)C4CC4)cc3)C(=O)N3CCC(CCC#Cc4cccc5c4CN(C4CCC(=O)NC4=O)C5=O)CC3)N2C(=O)[C@@H](NC(=O)c2cc3cc(C(F)(F)P(=O)(O)O)ccc3s2)C1` (some centres not stated) were, in that order, 0.5 µM and less than 0.25 µM.
Turning to `CCN1CC[C@H]2CC[C@@H](C(=O)N[C@@H](CNC(N)=O)C(=O)N[C@@H](Cc3ccc(C(C)(C)C)cc3)C(=O)N3CCC(CCC#Cc4cccc5c4CN(C4CCC(=O)NC4=O)C5=O)CC3)N2C(=O)[C@@H](NC(=O)c2cc3cc(C(F)(F)P(=O)(O)O)ccc3s2)C1` (some centres not stated), the results for the DC50 in test [1] and in test [2] were greater than 1 µM and less than 0.25 µM, respectively.
